Reference: ChEMBL document CHEMBL3085718, “Discovery and optimization of orally active cyclohexane-based prolylcarboxypeptidase (PrCP) inhibitors” (Bioorg Med Chem Lett, 2013)

Legend:
in vivo [1] = details: mouse, po
in vivo [2] = details: mouse
in vivo [3] = details: C57, mouse, plasma, po, 30 mg/kg
[4] = Plasma concentration in C57 mouse at 10 mg/kg, po after 20 hrs by LC/MS analysis; type: ADME, organism-based; set-up: dose 10 mg/kg, route oral

| Compound | bioavailability (in vivo [1]) | half-life (in vivo [2]) | concentration at 20 h (in vivo [3]) | concentration at 20 h [4] |
| --- | --- | --- | --- | --- |
| O=C(NC(c1ccncc1)c1ccc(F)cc1)[C@@H]1CC[C@@H](N2CCOCC2)C[C@H]1c1ccc(Br)cc1 (stereo not given in full) | 6.9% | 2 h |  |  |
| O=C(NC(c1ccc(F)cc1)c1ccc(F)cc1)[C@@H]1CC[C@@H](N2CCOCC2)C[C@H]1c1ccc(Br)cc1 | 77% | 7.6 h | 1020 nM |  |
| O=C(NC(c1ccc(Cl)cc1)c1ccnc(F)c1)[C@@H]1CC[C@@H](N2CCOCC2)C[C@H]1c1ccc(Br)cc1 (stereo not given in full) | 90% | 2.9 h | 390 nM | 163 nM |
| O=C(NC(c1ccccc1)c1ccccc1)[C@@H]1CC[C@@H](N2CCOCC2)C[C@H]1c1ccc(Br)cc1 | 36% | 3.1 h |  |  |

The remaining lines, values ahead:

| bioavailability (in vivo [1]) | half-life (in vivo [2]) | concentration at 20 h (in vivo [3]) | concentration at 20 h [4] | Compound |
| --- | --- | --- | --- | --- |
| 8.9% | 1.4 h |  |  | O=C(NC(c1ccncc1)c1ccc(Cl)cc1)[C@@H]1CC[C@@H](N2CCOCC2)C[C@H]1c1ccc(Br)cc1 (stereo not given in full) |
| 17% | 1.5 h |  |  | O=C(NC(c1ccc(Cl)cc1)c1ccncc1Cl)[C@@H]1CC[C@@H](N2CCOCC2)C[C@H]1c1ccc(Br)cc1 (stereo not given in full) |
| 50% | 4.9 h | 1840 nM |  | O=C(NC(c1ccc(Cl)cc1)c1ccc(F)cn1)[C@@H]1CC[C@@H](N2CCOCC2)C[C@H]1c1ccc(Br)cc1 (stereo not given in full) |
| 5.2% | 1.2 h |  |  | O=C(NC(c1ccc(Cl)cc1)c1cnccn1)[C@@H]1CC[C@@H](N2CCOCC2)C[C@H]1c1ccc(Br)cc1 (stereo not given in full) |
